# In patent US20080200436A1 (priority 2004, published 2008):
# What was measured:
# [1] = system: VEGF RTK; settings: cited from earlier work
# [2] = system: LNCaP tumour xenografts; assay: LNCaP Human Prostate Cancer Xenograft Model; type: in vivo, Swiss nude mice; settings: for tumour volume versus orchiectomy and control groups: P<0.001 versus each group
# Experimental: Six to eight-week-old Swiss nude mice were given one injection in the anterior flank with 5×10^6 tumour cells suspended in 0.1 ml of serum-free medium with the addition of 100 μl of Matrigel. Once tumours were established, mice were randomized into control and treatment groups.
# Mice were examined twice a week, and tumours were measured with calipers across the greatest two diameters. At the time of euthanasia, tumours were removed by dissection away from adjacent organs and structures and weighed on an analytical balance. For histologic analysis, tissue samples were fixed in 10% neutral buffered formalin and processed through graded ethanols and xylenes for paraffin embedding and staining using standard methods. For calculation of percent necrosis, 5 random fields per tumour were examined at low power (10×) from tumours harvested at 40 days. The necrotic area(s) in each field was/were circumscribed electronically using the tools available in the ImagePro computerized image analysis package (Media Cybernetics) to create an area. A human operator carried out this identification and circling of the necrotic area for all analyzed issues. Using the total area of the section as the denominator, the percentage of necrosis was evaluated for each field. To obtain an average for a whole experimental tumour group, the percent necrosis for each field was averaged across the total number of tumours in the group.
# Repeated measure models were used for the analysis of the in vivo tumour volumes. Several covariance structures, including AR- 1 and random coefficient models, were used and all yielded similar conclusions. The analyses reported herein are based on a random coefficient model with robust estimates of the covariance matrix. Specific comparisons between treatment groups were made using F-test based on contrasts. Statistical analyses were carried out in SAS PROC MIXED; the plots were prepared in GAUSS 5.0. Error bars represent one standard error from the mean. Time from treatment initiation to the time that tumour volumes exceeded a cut-off value (a tumour volume of >300 mm^3) were estimated with Kaplan-Meier curves and compared across treatment groups with the log-rank test. Tumour volume cut-offs were used to avoid using a survival endpoint, which would have involved significant animal distress and to employ a threshold that was appropriate for comparing the tumour growth data across all groups.
structure (smiles),measurement,setting,value
"COc1cc2c(Nc3ccc(Br)cc3F)ncnc2cc1OCC1CCN(C)CC1 [ZD6474, 4-(4-bromo-2-fluoroanilino)-6-methoxy-7-(1-methylpiperidin-4-ylmethoxy)quinazoline]",inhibition of VEGF RTK,[1],potent inhibitor
same,delay before tumour growth resumed after compound withdrawal,"[2]; ZD6474 alone 50 mg/kg/day for 40 days, then withdrawn, normal mice",approximately 15 days
same,tumour volume versus orchiectomy and control groups,"[2]; ZD6474 alone 50 mg/kg/day, after 38 days of treatment",significant differences in tumour volume
same,tumour volume versus orchiectomy group,"[2]; ZD6474 alone 50 mg/kg/day, days 13 to 38 post-treatment, P<0.05",Statistically significant differences
same,percentage of necrosis,"[2]; ZD6474 alone, 50 mg/kg/day once daily p.o., normal mice, tumours harvested at day 40, 5 tumours, vehicle control 31±7%",48±5%
same,percentage of necrosis,"[2]; combination of orchiectomy and ZD6474 50 mg/kg/day, tumours harvested at day 40, versus 51±5% in monotherapy, P=0.01",73±6%
same,tumour volume versus orchiectomy and control groups,"[2]; combination therapy group (ZD6474 50 mg/kg/day plus orchiectomy), after 38 days",significant differences were observed
same,rate of tumour growth after ZD6474 withdrawal versus untreated tumours,"[2]; previously ZD6474 treated tumours, delay of approximately 15 days taken into account",no significant difference
